From US8399465B2, “Compounds with two fused bicyclic heteroaryl moieties as modulators of leukotriene A4 hydrolase” (Janssen Pharmaceutica NV, priority 2009, dated 2013)
Where a name gives a salt, the structure may show the parent alone.

Key:
[1] = test system: LTB4 production in murine blood (LTA4H); test: LTB4 production by calcium ionophore-stimulated murine blood for LTA4H inhibitor activity; format: cell-based, CD-1 mice; details: Mus musculus; murine blood diluted 1 in 15, A23187 stimulated; single determination or average; mark after value = form tested: ′ free base, ″ hydrochloride, ^ formate; read-out: IC50
Description: Assay 2: LTB4 Production by Calcium Ionophore-Stimulated Murine Blood for LTA4H Inhibitor Activity
CD-1 mice were sacrificed, and blood was collected in heparin-containing syringes by cardiac puncture. […] After the microtiter plate contents were incubated for 15 min at 37° C. in a humidified incubator, calcium ionophore A23187 (Sigma Chemical Co., St. Louis, Mo.) was added to each sample well (final concentration=7 μg/mL). The incubation was continued under the same conditions for an additional 30 min to allow LTB4 formation. The reaction was terminated by centrifugation (833×g, 10 min at 4° C.), and supernatants were analyzed for LTB4 by a commercially available enzyme-linked immunoassay (Cayman Chemical Co.) according to the manufacturer's instructions. Positive controls, under essentially identical conditions but without addition of an inhibitor compound, and negative unstimulated controls, containing all assay components except calcium ionophore, were routinely run in each experiment. […] The values presented here are the result of a single determination or an average of two or more determinations.

[2] = target: T1, recombinant human LTA4 hydrolase (rhLTA4H) (Homo sapiens, UniProt P09960); test: Recombinant human LTA4 hydrolase assay for LTA4 hydrolase inhibitor activity; format: biochemical; details: rhLTA4H, LTB4 by immunoassay; single determination or average of two or more; mark after value = form tested: ′ free base, ″ hydrochloride, ^ formate; read-out: IC50
T1 construct: made in house; host or cells: Spodoptera frugiperda (Sf-9) cells, baculovirus (pFastBac1)
T1 sequence (P09960 1-611): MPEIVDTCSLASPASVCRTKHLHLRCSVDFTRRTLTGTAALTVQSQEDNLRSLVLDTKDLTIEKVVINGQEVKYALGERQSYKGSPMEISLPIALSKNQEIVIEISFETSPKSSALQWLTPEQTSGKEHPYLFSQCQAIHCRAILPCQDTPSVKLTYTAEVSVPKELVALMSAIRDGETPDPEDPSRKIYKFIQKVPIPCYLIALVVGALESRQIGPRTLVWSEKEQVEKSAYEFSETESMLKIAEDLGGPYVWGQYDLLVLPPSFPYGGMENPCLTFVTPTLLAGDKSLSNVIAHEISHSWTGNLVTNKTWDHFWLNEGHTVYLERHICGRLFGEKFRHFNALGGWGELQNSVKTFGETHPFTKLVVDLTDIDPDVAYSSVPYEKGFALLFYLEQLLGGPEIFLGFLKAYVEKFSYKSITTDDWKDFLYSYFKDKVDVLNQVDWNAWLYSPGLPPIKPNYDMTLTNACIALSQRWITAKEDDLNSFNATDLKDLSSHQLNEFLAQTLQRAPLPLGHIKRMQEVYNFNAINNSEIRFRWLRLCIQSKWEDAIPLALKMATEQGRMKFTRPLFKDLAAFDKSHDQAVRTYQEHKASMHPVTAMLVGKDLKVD
In short: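 Baculovirus/Sf-9-expressed human LTA4H (10 ng) was preincubated 10 min at rt with compound in assay buffer (10% DMSO in compound dilution), then reacted 30 min at rt with LTA4 free acid made from its methyl ester. LTB4 produced was measured by ELISA after dilution; IC50 from non-linear regression, single or averaged determinations.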

Row | Compound | IC50 [1] [nM] | IC50 [2] [nM]
1 | CS(=O)(=O)C1CCN(Cc2cc3cc(Oc4nc5ncccc5s4)ccc3o2)CC1 [Example 92, 2-[2-(4-Methanesulfonyl-piperidin-1-ylmethyl)-benzofuran-5-yloxy]-thiazolo[4,5-b]pyridine] | 400 | 51
2 | CC(=O)N[C@H]1C[C@H]2CC[C@@H](C1)N2Cc1cc2cc(Oc3nc4ncccc4s3)ccc2o1 [Example 87, meso-endo-N-{8-[5-(Thiazolo[4,5-b]pyridin-2-yloxy)-benzofuran-2-ylmethyl]-8-aza-bicyclo[3.2.1]oct-3-yl}-acetamide] | 77 | 35
3 | O=C(c1coc2cc(Oc3nc4ncccc4s3)ccc12)N1CCC(C(=O)N2CCCCC2)CC1 [Example 384, [4-(Piperidine-1-carbonyl)-piperidin-1-yl]-[6-(thiazolo[4,5-b]pyridin-2-yloxy)-benzofuran-3-yl]-methanone] | 120 | 12
4 | NC(=O)C1CCN(Cc2cc3cc(Oc4nc5ncccc5s4)ccc3o2)CC1 [Example 88, 1-[5-(Thiazolo[4,5-b]pyridin-2-yloxy)-benzofuran-2-ylmethyl]-piperidine-4-carboxylic acid amide] | 320 | 11
5 | c1ccc2sc(Oc3ccc4c(CN5C[C@@H]6C[C@H]5CN6)c[nH]c4c3)nc2c1 [Example 52, (1S,4S)-2-[3-(2,5-Diaza-bicyclo[2.2.1]hept-2-ylmethyl)-1H-indol-6-yloxy]-benzothiazole 2HCl] | 411 | 23
6 | CC(=O)N1[C@@H]2CC[C@H]1CN(Cc1coc3cc(Oc4nc5ncccc5s4)ccc13)C2 [Example 295, meso-1-{3-[6-(Thiazolo[4,5-b]pyridin-2-yloxy)-benzofuran-3-ylmethyl]-3,8-diaza-bicyclo[3.2.1]oct-8-yl}-ethanone formate] | 55 | 4
7 | c1ccc(CC2CCN(Cc3coc4cc(Oc5nc6ncccc6s5)ccc34)CC2)cc1 [Example 279, 2-[3-(4-Benzyl-piperidin-1-ylmethyl)-benzofuran-6-yloxy]-thiazolo[4,5-b]pyridine] | 130 | 44
8 | CC(=O)N[C@H]1C[C@H]2CC[C@@H](C1)N2Cc1c[nH]c2cc(Oc3nc4cccnc4s3)ccc12 [Example 43, meso-endo-N-{8-[6-(Thiazolo[5,4-b]pyridin-2-yloxy)-1H-indol-3-ylmethyl]-8-aza-bicyclo[3.2.1]oct-3-yl}-acetamide] | 409 | 6
9 | CC(C)(C)OC(=O)N1C[C@@H]2C[C@H]1CN2Cc1c[nH]c2cc(Oc3nc4ccccc4s3)ccc12 [Example 147, (1S,4S)-5-[6-(Benzothiazol-2-yloxy)-1H-indol-3-ylmethyl]-2,5-diaza-bicyclo[2.2.1]heptane-2-carboxylic acid tert-butyl ester] | 568 | 12
10 | Clc1ccc2sc3c(c2c1)CN(Cc1c[nH]c2cc(Oc4nc5ncccc5s4)ccc12)CC3 [Example 36, 8-Chloro-2-[6-(thiazolo[4,5-b]pyridin-2-yloxy)-1H-indol-3-ylmethyl]-1,2,3,4-tetrahydro-benzo[4,5]thieno[3,2-c]pyridine formate] | 423 | 77
11 | c1ccc2sc(Oc3cnc4c(CN5CCCCC5)c[nH]c4c3)nc2c1 [Example 31, 2-(3-Piperidin-1-ylmethyl-1H-pyrrolo[3,2-b]pyridin-6-yloxy)-benzothiazole] | 188 | 55
12 | c1ccc(C2CCN(Cc3c[nH]c4cc(Oc5nc6ccccc6s5)ccc34)CC2)cc1 [Example 8, 2-[3-(4-Phenyl-piperidin-1-ylmethyl)-1H-indol-6-yloxy]-benzothiazole] | 1140 | 11

Further compounds by falling IC50 [1], results first:

Row | IC50 [1] [nM] | IC50 [2] [nM] | Compound
13 | 110 | 22 | NC(=O)C1CCN(C(=O)c2coc3cc(Oc4nc5ncccc5s4)ccc23)CC1 [Example 378, 1-[6-(Thiazolo[4,5-b]pyridin-2-yloxy)-benzofuran-3-carbonyl]-piperidine-4-carboxylic acid amide]
14 | 104 | 2 | CC(=O)N1C[C@@H]2C[C@H]1CN2Cc1c[nH]c2cc(Oc3nc4ncccc4s3)ccc12 [Example 19, (1S,4S)-1-{5-[6-(Thiazolo[4,5-b]pyridin-2-yloxy)-1H-indol-3-ylmethyl]-2,5-diaza-bicyclo[2.2.1]hept-2-yl}-ethanone]
15 | 100 | 26 | FC1CCN(Cc2coc3cc(Oc4nc5ncccc5s4)ccc23)CC1 [Example 270, 2-[3-(4-Fluoro-piperidin-1-ylmethyl)-benzofuran-6-yloxy]-thiazolo[4,5-b]pyridine formate]
16 | 91 | 39 | CC(=O)NC1CCN(Cc2coc3cc(Oc4nc5nccnc5s4)ccc23)CC1 [Example 253, N-{1-[6-(Thiazolo[4,5-b]pyrazin-2-yloxy)-benzofuran-3-ylmethyl]-piperidin-4-yl}-acetamide formate]
17 | 80 | 6 | CS(=O)(=O)N1CCN(Cc2coc3cc(Oc4nc5ncccc5s4)ccc23)CC1 [Example 243, 2-[3-(4-Methanesulfonyl-piperazin-1-ylmethyl)-benzofuran-6-yloxy]-thiazolo[4,5-b]pyridine]
18 | 78 | 19 | c1ccc2sc(Oc3ccc4c(CN5CCCCC5)c[nH]c4c3)nc2c1 [Example 2, 2-(3-Piperidin-1-ylmethyl-1H-indol-6-yloxy)-benzothiazole]
19 | 44 | 9 | c1cnc2nc(Oc3ccc4c(CN5CCCC6CCCCC65)coc4c3)sc2c1 (centres unmarked) [Example 267, 1-[6-(Thiazolo[4,5-b]pyridin-2-yloxy)-benzofuran-3-ylmethyl]-decahydro-quinoline formate]
20 | 41 | 9 | CC(=O)N(C(C)C)C1CCN(Cc2coc3cc(Oc4nc5ncccc5s4)ccc23)CC1 [Example 323, N-Isopropyl-N-{1-[6-(thiazolo[4,5-b]pyridin-2-yloxy)-benzofuran-3-ylmethyl]-piperidin-4-yl}-acetamide]
21 | 38 | 26 | FC1CCCN(Cc2coc3cc(Oc4nc5ncccc5s4)ccc23)C1 (centres unmarked) [Example 350, 2-[3-(3-Fluoro-piperidin-1-ylmethyl)-benzofuran-6-yloxy]-thiazolo[4,5-b]pyridine]
22 | 36 | 4 | c1cnc(OC2CCN(Cc3coc4cc(Oc5nc6ncccc6s5)ccc34)CC2)nc1 [Example 217, 2-{3-[4-(Pyrimidin-2-yloxy)-piperidin-1-ylmethyl]-benzofuran-6-yloxy}-thiazolo[4,5-b]pyridine]
23 | 23 | 2 | c1cnc2nc(Oc3ccc4c(CN5CCOCC5)c[nH]c4c3)sc2c1 [Example 40, 2-(3-Morpholin-4-ylmethyl-1H-indol-6-yloxy)-thiazolo[4,5-b]pyridine]
24 | 15 | 5 | O=C1CCCCN1C1CCN(Cc2coc3cc(Oc4nc5ncccc5s4)ccc23)CC1 [Example 272, 1′-[6-(Thiazolo[4,5-b]pyridin-2-yloxy)-benzofuran-3-ylmethyl]-[1,4′]bipiperidinyl-2-one formate]
25 | 14 | 9 | O=C(c1ccno1)N1C[C@@H]2C[C@H]1CN2Cc1coc2cc(Oc3nc4ncccc4s3)ccc12 [Example 358, (1S,4S)-Isoxazol-5-yl-{5-[6-(thiazolo[4,5-b]pyridin-2-yloxy)-benzofuran-3-ylmethyl]-2,5-diaza-bicyclo[2.2.1]hept-2-yl}-methanone]
